Assay results as given in patent US9493436B2, “Tyrosine phosphatase inhibitors and uses thereof to modulate the activity of enzymes involved in the pathology of Mycobacterium tuberculosis” (priority 2011, dated 2016).
Several values for one entry are separate records, joined by “and”; a condition that tells them apart may be missing. Equal values may be shown once. Entries after “also recorded” stand apart in the source; their conditions may differ.

Tests used:
TC-PTP = biological target: T1, TC-PTP (Homo sapiens, UniProt P17706); assay: PTP selectivity panel: TC-PTP; format: biochemical; conditions: read-out: IC50 (μM) TC-PTP
T1 sequence (P17706 1-415): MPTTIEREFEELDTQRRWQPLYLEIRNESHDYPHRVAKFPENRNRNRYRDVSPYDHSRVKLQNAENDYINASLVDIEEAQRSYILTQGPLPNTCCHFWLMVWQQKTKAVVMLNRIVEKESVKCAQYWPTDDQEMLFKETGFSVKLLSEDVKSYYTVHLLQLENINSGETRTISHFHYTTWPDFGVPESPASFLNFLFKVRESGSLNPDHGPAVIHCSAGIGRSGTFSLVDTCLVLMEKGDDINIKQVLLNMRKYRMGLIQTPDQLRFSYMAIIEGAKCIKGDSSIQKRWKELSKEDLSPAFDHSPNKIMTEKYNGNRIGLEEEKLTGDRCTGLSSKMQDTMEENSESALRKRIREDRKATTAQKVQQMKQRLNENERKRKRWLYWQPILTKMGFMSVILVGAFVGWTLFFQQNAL

SHP1 = SHP1 (Homo sapiens, UniProt P29350); format: biochemical
Sequence of SHP1 (P29350 whole entry): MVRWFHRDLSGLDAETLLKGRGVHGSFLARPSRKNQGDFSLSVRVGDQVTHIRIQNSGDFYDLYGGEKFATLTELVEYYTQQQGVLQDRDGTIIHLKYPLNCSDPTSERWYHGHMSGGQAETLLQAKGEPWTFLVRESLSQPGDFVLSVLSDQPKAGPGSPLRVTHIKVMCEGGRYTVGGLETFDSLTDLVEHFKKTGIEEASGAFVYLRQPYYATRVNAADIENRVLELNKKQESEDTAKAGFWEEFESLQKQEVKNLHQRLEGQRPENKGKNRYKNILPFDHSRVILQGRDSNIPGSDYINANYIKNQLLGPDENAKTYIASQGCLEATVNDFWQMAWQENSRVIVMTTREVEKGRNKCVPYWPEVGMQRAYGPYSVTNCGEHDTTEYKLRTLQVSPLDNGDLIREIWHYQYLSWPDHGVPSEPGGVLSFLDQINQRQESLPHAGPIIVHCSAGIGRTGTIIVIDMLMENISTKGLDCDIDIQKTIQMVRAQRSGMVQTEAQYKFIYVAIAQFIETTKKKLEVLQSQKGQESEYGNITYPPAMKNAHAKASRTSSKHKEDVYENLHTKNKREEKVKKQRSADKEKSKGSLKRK

Laforin = Laforin (Homo sapiens, UniProt O95278); format: biochemical
Sequence of Laforin (O95278 whole entry, species assumed): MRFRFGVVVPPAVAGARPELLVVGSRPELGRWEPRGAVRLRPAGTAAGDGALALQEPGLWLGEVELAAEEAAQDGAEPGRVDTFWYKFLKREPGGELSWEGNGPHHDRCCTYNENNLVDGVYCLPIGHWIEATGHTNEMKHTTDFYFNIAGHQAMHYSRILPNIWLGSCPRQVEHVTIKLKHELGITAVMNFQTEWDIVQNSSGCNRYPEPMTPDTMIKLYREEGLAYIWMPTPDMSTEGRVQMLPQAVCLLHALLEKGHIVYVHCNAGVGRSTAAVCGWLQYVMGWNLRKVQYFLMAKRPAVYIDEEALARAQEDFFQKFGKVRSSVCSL

LMWPTP = LMWPTP (Homo sapiens, UniProt P24666); assay: PTP selectivity panel: LMWPTP; format: biochemical
Sequence of LMWPTP (P24666 whole entry, species assumed): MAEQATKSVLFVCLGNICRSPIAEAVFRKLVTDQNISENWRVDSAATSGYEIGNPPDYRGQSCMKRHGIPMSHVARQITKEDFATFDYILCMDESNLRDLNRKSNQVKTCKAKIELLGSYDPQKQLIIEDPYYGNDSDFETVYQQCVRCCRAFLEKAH

[1] = test system: Akt phosphorylation in Raw264.7 cells expressing mPTPB; format: cell-based, mouse; conditions: macrophage cells expressing mPTPB, increasing concentrations
SHP2 = SHP2 (Homo sapiens, UniProt Q06124); conditions: read-out: IC50 (μM) SHP2
Sequence of SHP2 (Q06124 whole entry, species assumed): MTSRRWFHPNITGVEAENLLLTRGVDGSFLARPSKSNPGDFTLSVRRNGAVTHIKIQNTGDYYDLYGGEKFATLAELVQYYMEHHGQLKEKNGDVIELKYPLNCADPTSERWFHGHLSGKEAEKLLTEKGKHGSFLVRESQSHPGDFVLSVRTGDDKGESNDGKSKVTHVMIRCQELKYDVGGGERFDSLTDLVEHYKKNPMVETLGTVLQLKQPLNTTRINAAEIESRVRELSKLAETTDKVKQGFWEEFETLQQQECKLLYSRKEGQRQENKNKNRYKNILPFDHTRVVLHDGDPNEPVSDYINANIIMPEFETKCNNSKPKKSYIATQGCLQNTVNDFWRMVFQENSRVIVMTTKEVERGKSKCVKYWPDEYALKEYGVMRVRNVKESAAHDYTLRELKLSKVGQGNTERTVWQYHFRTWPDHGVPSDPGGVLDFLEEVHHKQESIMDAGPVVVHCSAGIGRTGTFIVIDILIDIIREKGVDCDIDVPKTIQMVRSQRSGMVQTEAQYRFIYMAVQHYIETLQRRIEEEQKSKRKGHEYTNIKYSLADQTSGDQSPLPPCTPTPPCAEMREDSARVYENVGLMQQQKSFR

Meg2 = Meg2 (Homo sapiens, UniProt P43378); conditions: read-out: IC50 (μM) Meg2
Sequence of Meg2 (P43378 whole entry): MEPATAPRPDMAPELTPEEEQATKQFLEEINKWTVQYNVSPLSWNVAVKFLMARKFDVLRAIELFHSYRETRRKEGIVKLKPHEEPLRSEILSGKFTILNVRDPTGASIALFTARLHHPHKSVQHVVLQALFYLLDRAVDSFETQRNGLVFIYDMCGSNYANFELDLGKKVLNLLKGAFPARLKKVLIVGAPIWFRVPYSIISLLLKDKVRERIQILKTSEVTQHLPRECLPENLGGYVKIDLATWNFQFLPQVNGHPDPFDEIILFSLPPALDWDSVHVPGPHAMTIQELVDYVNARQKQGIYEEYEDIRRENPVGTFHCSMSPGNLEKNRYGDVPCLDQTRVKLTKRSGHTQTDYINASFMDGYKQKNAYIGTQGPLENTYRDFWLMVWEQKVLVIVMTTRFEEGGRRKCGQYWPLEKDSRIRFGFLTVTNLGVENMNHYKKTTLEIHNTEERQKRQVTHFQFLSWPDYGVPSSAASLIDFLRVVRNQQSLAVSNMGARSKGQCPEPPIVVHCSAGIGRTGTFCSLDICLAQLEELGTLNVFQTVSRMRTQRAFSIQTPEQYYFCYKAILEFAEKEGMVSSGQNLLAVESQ

mPTPB = biological target: T2, mPTPB (Mycobacterium tuberculosis, UniProt I6WXK4); assay: biochemical; format: biochemical
T2 construct: The full-length mPTPB with a N-terminal His6-tag was expressed and purified; His6 (N); made in house; host or cells: E. coli BL21/DE3 (pET28b-mPTPB)
T2 sequence (I6WXK4 1-276): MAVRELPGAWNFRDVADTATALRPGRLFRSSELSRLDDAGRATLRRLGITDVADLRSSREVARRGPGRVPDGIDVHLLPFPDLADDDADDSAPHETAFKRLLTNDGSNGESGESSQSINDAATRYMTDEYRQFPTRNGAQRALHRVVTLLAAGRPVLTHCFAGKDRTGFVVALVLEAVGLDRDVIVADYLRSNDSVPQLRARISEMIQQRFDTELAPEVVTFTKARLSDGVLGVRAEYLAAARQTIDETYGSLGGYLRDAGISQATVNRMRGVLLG

mPTPA = mPTPA (Mycobacterium tuberculosis, UniProt P9WIA1); assay: PTP selectivity panel: mPTPA; format: biochemical
Sequence of mPTPA (P9WIA1 whole entry): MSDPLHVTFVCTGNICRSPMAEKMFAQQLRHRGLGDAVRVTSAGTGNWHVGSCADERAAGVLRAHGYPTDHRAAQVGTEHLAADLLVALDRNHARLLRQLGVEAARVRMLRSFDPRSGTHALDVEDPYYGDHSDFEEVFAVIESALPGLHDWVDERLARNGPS

Lyp = biological target: T3, Lyp (Homo sapiens, UniProt Q9Y2R2); assay: biochemical; format: biochemical
T3 sequence (Q9Y2R2 1-807): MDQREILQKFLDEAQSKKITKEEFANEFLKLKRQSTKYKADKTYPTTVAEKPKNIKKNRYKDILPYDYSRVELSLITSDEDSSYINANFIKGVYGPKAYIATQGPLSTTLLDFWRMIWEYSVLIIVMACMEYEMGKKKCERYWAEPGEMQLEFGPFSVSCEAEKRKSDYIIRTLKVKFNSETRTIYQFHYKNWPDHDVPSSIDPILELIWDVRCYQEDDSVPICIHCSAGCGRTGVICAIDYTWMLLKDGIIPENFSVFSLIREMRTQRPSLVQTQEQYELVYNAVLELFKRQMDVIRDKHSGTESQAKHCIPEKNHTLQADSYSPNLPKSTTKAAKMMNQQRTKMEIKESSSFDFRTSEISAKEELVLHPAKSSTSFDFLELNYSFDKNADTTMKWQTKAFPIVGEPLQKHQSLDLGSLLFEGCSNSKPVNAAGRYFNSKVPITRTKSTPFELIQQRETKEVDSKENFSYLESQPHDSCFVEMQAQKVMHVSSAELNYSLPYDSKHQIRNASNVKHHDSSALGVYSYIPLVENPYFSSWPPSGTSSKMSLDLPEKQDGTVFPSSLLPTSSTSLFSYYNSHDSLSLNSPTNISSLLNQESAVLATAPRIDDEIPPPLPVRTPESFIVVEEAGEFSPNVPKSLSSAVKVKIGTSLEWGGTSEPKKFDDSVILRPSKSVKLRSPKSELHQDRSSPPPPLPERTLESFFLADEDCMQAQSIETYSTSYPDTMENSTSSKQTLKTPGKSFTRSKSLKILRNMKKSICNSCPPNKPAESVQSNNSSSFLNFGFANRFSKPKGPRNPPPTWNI

HePTP = biological target: T4, HePTP (Homo sapiens, UniProt P35236); assay: biochemical; format: biochemical
T4 sequence (P35236 1-360): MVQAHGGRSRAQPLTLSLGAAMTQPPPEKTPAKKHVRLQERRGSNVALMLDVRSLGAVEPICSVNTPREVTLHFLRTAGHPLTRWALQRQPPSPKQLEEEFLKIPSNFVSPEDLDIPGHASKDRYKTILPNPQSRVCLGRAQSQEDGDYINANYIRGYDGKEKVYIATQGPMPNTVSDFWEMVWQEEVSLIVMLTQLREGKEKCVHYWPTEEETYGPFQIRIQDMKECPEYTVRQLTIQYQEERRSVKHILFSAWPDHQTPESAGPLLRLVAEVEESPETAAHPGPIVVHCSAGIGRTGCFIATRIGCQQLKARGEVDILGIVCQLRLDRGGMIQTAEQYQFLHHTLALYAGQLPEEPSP

YopH = YopH (UniProt P15273); format: biochemical; conditions: read-out: IC50 (μM) YopH
Sequence of YopH (P15273 whole entry, looked up): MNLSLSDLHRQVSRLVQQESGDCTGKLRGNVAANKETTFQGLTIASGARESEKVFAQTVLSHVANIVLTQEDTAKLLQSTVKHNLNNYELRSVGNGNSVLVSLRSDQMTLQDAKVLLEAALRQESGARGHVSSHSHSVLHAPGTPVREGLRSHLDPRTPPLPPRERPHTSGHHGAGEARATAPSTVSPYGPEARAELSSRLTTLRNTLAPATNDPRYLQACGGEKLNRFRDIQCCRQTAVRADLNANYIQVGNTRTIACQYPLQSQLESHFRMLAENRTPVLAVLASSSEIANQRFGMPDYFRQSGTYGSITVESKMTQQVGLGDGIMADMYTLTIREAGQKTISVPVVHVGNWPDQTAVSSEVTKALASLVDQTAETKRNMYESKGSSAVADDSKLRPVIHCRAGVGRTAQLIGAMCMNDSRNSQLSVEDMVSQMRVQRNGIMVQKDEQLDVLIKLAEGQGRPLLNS

SHP1-D1C = SHP1-D1C (Homo sapiens, UniProt P29350); assay: biochemical
Sequence of SHP1-D1C (P29350 244-528 limits assumed): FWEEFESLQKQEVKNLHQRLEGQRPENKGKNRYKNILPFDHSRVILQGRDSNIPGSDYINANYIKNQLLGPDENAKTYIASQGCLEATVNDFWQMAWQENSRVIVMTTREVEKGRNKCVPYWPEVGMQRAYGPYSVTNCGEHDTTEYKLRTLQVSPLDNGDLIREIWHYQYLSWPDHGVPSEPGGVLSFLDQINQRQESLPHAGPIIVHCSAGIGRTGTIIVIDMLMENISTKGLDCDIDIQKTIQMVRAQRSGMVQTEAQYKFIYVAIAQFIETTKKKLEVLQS

| SMILES | IC50 (TC-PTP) [µM] | IC50 (SHP1) [µM] | IC50 (Laforin) [µM] | IC50 (LMWPTP) [µM] | AKT phosphorylation / Akt activation [1] | IC50 (SHP2) [µM] | IC50 (Meg2) [µM] | mode of mPTPB inhibition (mPTPB; kinetic analyses, Lineweaver-Burk plot) | Ki (mPTPB; pH 7.0, 25° C.) [µM] | IC50 (mPTPB; pNPP substrate, pH 7.0, 25° C., read-out: IC50 (μM) against mPTPB) | selectivity for mPTPB over the other ten PTPs (mPTPB; panel of 11 PTPs) [fold] | IC50 (mPTPA) [µM] | IC50 (Lyp) [µM] | IC50 (HePTP) [µM] | IC50 (YopH) [µM] | IC50 (SHP1-D1C) [µM] |
| --- | --- | --- | --- | --- | --- | --- | --- | --- | --- | --- | --- | --- | --- | --- | --- | --- |
| O=C(O)c1cc2c(C#Cc3cccc(C(F)(F)F)c3)c(-c3ccccc3)oc2cc1O [32 (L01Z08)] | 5.7 ± 0.4 | 2.3 ± 0.3 | 40 ± 10 | 4.3 ± 0.6 | phosphorylation decreasing with treatments of increasing concentrations | 1.8 ± 0.2 | 4.3 ± 0.5 | – | – | – | – | – | – | – | – | – |
| Cn1c(-c2ccccc2C(F)(F)F)c(I)c2cc(C(=O)O)c(O)cc21 [Compound 207a, 6-hydroxy-3-iodo-1-methyl-2-(2-(trifluoromethyl)phenyl)-1H-indole-5-carboxylic acid] | – | – | – | – | – | – | – | Non-competitive inhibition; also recorded: reversible and noncompetitive inhibitor | 1.21 ± 0.04 | 1.2 µM and 1.18 µM | 47 | 82 ± 1 | 75 ± 4 | 86 ± 6 | 220 ± 20 | 86.8 ± 0.4 |
